Earlier results, collected in patent US20110066230A1, “Fluorinated GHRH Antagonists” (priority 2009, published 2011).

Assays:
pituitary receptors = target: T1, pituitary receptors (Homo sapiens, UniProt Q02643); details: biological activity on the pituitary
T1 sequence (Q02643 23-423): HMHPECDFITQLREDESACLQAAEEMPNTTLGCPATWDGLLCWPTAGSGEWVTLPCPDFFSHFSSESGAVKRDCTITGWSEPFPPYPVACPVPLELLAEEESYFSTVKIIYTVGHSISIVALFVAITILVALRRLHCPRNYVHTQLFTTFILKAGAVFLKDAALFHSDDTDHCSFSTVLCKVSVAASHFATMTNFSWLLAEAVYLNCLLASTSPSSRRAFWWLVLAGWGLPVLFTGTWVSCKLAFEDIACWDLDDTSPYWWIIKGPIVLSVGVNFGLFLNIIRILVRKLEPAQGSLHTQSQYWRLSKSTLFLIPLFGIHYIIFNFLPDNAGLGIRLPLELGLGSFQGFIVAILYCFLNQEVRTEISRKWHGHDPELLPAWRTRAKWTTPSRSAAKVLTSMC

[1] = test system: rat anterior pituitary adenylate cyclase
[2] = normal subjects, large doses (400 μg/kg)

Substance | potency retained relative to native GH-RH (pituitary receptors) [%] | activation of rat anterior pituitary adenylate cyclase by hGH-RH(1-29)NH2 [1] | GH levels (GH secretion; a patient with acromegaly) | nocturnal GH secretion (GH secretion; [2]) | response to GH-RH (GH secretion; [2])
Tyr-Ala-Asp-Ala-Ile^5-Phe-Thr-Asn-Ser-Tyr^10-Arg-Lys-Val-Leu-Gly^15-Gln-Leu-Ser-Ala-Arg^20-Lys-Leu-Leu-Gln-Asp^25-Ile-Met-Ser-Arg^29-NH2 [GH-RH(1-29)] | ≥ 50 |  |  |  | 
[Ac-Tyr^1,D-Arg^2]hGH-RH(1-29)NH2 [standard antagonist] |  | prevent the activation | reduced GH levels | eliminated nocturnal GH secretion | inhibited the response to GH-RH
